One assay concerns Chilo suppressalis. Briefly: Example B1: Chilo suppressalis (striped rice stemborer), artificial diet, L2 larvae. Particulars: 144 h, application rate of 200 ppm, 6 days after infestation, read-out: control in at least one of the three categories (mortality, anti-feedant effect, or growth inhibition). Type of assay: in vivo. The method, then:
Example B1: Chilo suppressalis (Striped Rice Stemborer)
24-well microtiter plates with artificial diet were treated with aqueous test solutions prepared from 10,000 ppm DMSO stock solutions by pipetting. After drying, the plates were infested with L2 larvae (6-8 per well). The samples were assessed for mortality, anti-feeding effect, and growth inhibition in comparison to untreated samples 6 days after infestation. Control of Chilo suppressalis by a test sample is given when at least one of the categories mortality, anti-feedant effect, and growth inhibition is higher than the untreated sample.
Regarding `Cc1cc(Cl)ncc1NC(=O)N[C@@H](C)c1ncnn1-c1ncccn1` [Example P318, 1-(6-chloro-4-methyl-3-pyridyl)-3-[(1S)-1-(2-pyrimidin-2-yl-1,2,4-triazol-3-yl)ethyl]urea], the percent control (mortality, anti-feedant effect or growth inhibition) at 200 ppm was at least 80%.
In the case of `C[C@H](NC(=O)Nc1cc(Cl)c(F)cc1F)c1ncnn1-c1ncccn1` [Example P379, 1-(5-chloro-2,4-difluoro-phenyl)-3-[(1S)-1-(2-pyrimidin-2-yl-1,2,4-triazol-3-yl)ethyl]urea], the percent control (mortality, anti-feedant effect or growth inhibition) at 200 ppm was at least 80%.
Take `Cc1cc(NC(=O)N[C@@H](C)c2ncnn2-c2ncccn2)c(C)cc1F` [Example P295, 1-(4-fluoro-2,5-dimethyl-phenyl)-3-[(1S)-1-(2-pyrimidin-2-yl-1,2,4-triazol-3-yl)ethyl]urea]: the percent control (mortality, anti-feedant effect or growth inhibition) at 200 ppm was at least 80%.
For `Cc1cc(Br)ncc1NC(=O)N[C@@H](C)c1ncnn1-c1ncccn1` [Example P342, 1-(6-bromo-4-methyl-3-pyridyl)-3-[(1S)-1-(2-pyrimidin-2-yl-1,2,4-triazol-3-yl)ethyl]urea], the percent control (mortality, anti-feedant effect or growth inhibition) at 200 ppm is at least 80%.
The same measure, in the same setting: the same measure for `Cc1cc([N+](=O)[O-])c(C)cc1NC(=O)N[C@@H](C)c1ncnn1-c1ncccn1` [Example P323, 1-(2,5-dimethyl-4-nitro-phenyl)-3-[(1S)-1-(2-pyrimidin-2-yl-1,2,4-triazol-3-yl)ethyl]urea]: at least 80%; for `Cc1cc(NC(=O)N[C@@H](C)c2ncnn2-c2ncccn2)c(Cl)cc1F` [Example P385, 1-(2-chloro-4-fluoro-5-methyl-phenyl)-3-[(1S)-1-(2-pyrimidin-2-yl-1,2,4-triazol-3-yl)ethyl]urea]: at least 80%.
Take `COc1cc(S(C)(=O)=O)c(NC(=O)N[C@@H](C)c2ncnn2-c2ncccn2)cc1Cl` [Example P192, 1-(5-chloro-4-methoxy-2-methylsulfonyl-phenyl)-3-[(1S)-1-(2-pyrimidin-2-yl-1,2,4-triazol-3-yl)ethyl]urea]: the percent control (mortality, anti-feedant effect or growth inhibition) at 200 ppm is at least 80%.
In the case of `Cc1cc(Br)ccc1NC(=O)N[C@@H](C)c1ncnn1-c1ncccn1` [Example P106, 1-(4-bromo-2-methyl-phenyl)-3-[(1S)-1-(2-pyrimidin-2-yl-1,2,4-triazol-3-yl)ethyl]urea], the percent control (mortality, anti-feedant effect or growth inhibition) at 200 ppm was at least 80%.
`C[C@H](NC(=O)Nc1ccc(F)cc1C(C)(F)F)c1ncnn1-c1ncccn1` [Example P45, 1-[2-(1,1-difluoroethyl)-4-fluoro-phenyl]-3-[(1S)-1-(2-pyrimidin-2-yl-1,2,4-triazol-3-yl)ethyl]urea]: the percent control (mortality, anti-feedant effect or growth inhibition) at 200 ppm was at least 80%.
On the same count and under the same terms, the same measure for `COc1cc(C)c(NC(=O)N[C@@H](C)c2ncnn2-c2ncccn2)cc1F` [Example P378, 1-(5-fluoro-4-methoxy-2-methyl-phenyl)-3-[(1S)-1-(2-pyrimidin-2-yl-1,2,4-triazol-3-yl)ethyl]urea]: at least 80%.
As for `Cc1cc(F)c(C(F)(F)F)cc1NC(=O)N[C@@H](C)c1ncnn1-c1ncccn1` [Example P297, 1-[4-fluoro-2-methyl-5-(trifluoromethyl)phenyl]-3-[(1S)-1-(2-pyrimidin-2-yl-1,2,4-triazol-3-yl)ethyl]urea], the percent control (mortality, anti-feedant effect or growth inhibition) at 200 ppm was at least 80%.
Turning to `Cc1cc(C)c(N2CCCC2=O)cc1NC(=O)N[C@@H](C)c1ncnn1-c1ncccn1` [Example P212, 1-[2,4-dimethyl-5-(2-oxopyrrolidin-1-yl)phenyl]-3-[(1S)-1-(2-pyrimidin-2-yl-1,2,4-triazol-3-yl)ethyl]urea], the percent control (mortality, anti-feedant effect or growth inhibition) at 200 ppm was at least 80%.
Regarding `C[C@H](NC(=O)Nc1cc(C(F)(F)F)c(Cl)cc1F)c1ncnn1-c1ncccn1` [Example P393, 1-[4-chloro-2-fluoro-5-(trifluoromethyl)phenyl]-3-[(1S)-1-(2-pyrimidin-2-yl-1,2,4-triazol-3-yl)ethyl]urea], the percent control (mortality, anti-feedant effect or growth inhibition) at 200 ppm is at least 80%.
Still for that read-out and setting: the same measure for `C[C@H](NC(=O)Nc1ccc(F)cc1C(F)(F)F)c1ncnn1-c1ncccn1` [Example P116, 1-[4-fluoro-2-(trifluoromethyl)phenyl]-3-[(1S)-1-(2-pyrimidin-2-yl-1,2,4-triazol-3-yl)ethyl]urea]: at least 80%; for `C[C@H](NC(=O)Nc1cc2c(cc1Br)CCC(=O)N2)c1ncnn1-c1ncccn1` [Example P322, 1-(6-bromo-2-oxo-3,4-dihydro-1H-quinolin-7-yl)-3-[(1S)-1-(2-pyrimidin-2-yl-1,2,4-triazol-3-yl)ethyl]urea]: at least 80%.
`COc1cc(NC(=O)N[C@@H](C)c2ncnn2-c2ncccn2)c(Br)cc1Cl` [Example P294, 1-(2-bromo-4-chloro-5-methoxy-phenyl)-3-[(1S)-1-(2-pyrimidin-2-yl-1,2,4-triazol-3-yl)ethyl]urea]: the percent control (mortality, anti-feedant effect or growth inhibition) at 200 ppm was at least 80%.
With `Cc1cc2c(cc1NC(=O)N[C@@H](C)c1ncnn1-c1ncccn1)OCO2` [Example P344, 1-(6-methyl-1,3-benzodioxol-5-yl)-3-[(1S)-1-(2-pyrimidin-2-yl-1,2,4-triazol-3-yl)ethyl]urea], the percent control (mortality, anti-feedant effect or growth inhibition) at 200 ppm was at least 80%.
For the molecule `C[C@@H](c1ncnn1-c1ncccn1)N1CCCN(c2cc(OC(F)(F)C(F)F)c(Cl)cc2Cl)C1=O` [Example P311, 1-[2,4-dichloro-5-(1,1,2,2-tetrafluoroethoxy)phenyl]-3-[(1S)-1-(2-pyrimidin-2-yl-1,2,4-triazol-3-yl)ethyl]hexahydropyrimidin-2-one], the percent control (mortality, anti-feedant effect or growth inhibition) at 200 ppm was at least 80%.
Still for that read-out and setting: as for `C[C@H](NC(=O)Nc1cc2c(cc1Br)CCC2)c1ncnn1-c1ncccn1` [Example P303, 1-(6-bromoindan-5-yl)-3-[(1S)-1-(2-pyrimidin-2-yl-1,2,4-triazol-3-yl)ethyl]urea], the figure is at least 80%; as for `C[C@H](NC(=O)Nc1cc(Br)c(F)cc1I)c1ncnn1-c1ncccn1` [Example P371, 1-(5-bromo-4-fluoro-2-iodo-phenyl)-3-[(1S)-1-(2-pyrimidin-2-yl-1,2,4-triazol-3-yl)ethyl]urea], at least 80%.
Same read-out and setting: as for `Cc1cc(F)c(C#N)cc1NC(=O)N[C@@H](C)c1ncnn1-c1ncccn1` [Example P296, 1-(5-cyano-4-fluoro-2-methyl-phenyl)-3-[(1S)-1-(2-pyrimidin-2-yl-1,2,4-triazol-3-yl)ethyl]urea], the figure is at least 80%; as for `C[C@H](NC(=O)Nc1cc(F)c(Br)cc1F)c1ncnn1-c1ncccn1` [Example P339, 1-(4-bromo-2,5-difluoro-phenyl)-3-[(1S)-1-(2-pyrimidin-2-yl-1,2,4-triazol-3-yl)ethyl]urea], at least 80%.

The next assay concerns Plutella xylostella. Description: Example B8: Plutella xylostella (diamond back moth), artificial diet 24-well, eggs. The following applies: 192 h, application rate of 200 ppm, 8 days after infestation, read-out: effect in at least one of the two categories (mortality or growth inhibition). Type of assay: in vivo. As for the experimental part: Example B8: Plutella xylostella (Diamond Back Moth)
24-well microtiter plates with artificial diet were treated with aqueous test solutions prepared from 10,000 ppm DMSO stock solutions by pipetting. After drying, Plutella eggs were pipetted through a plastic stencil onto a gel blotting paper and the plate was closed with it. The samples were assessed for mortality and growth inhibition in comparison to untreated samples 8 days after infestation.
The following compounds gave an effect of at least 80% in at least one of the two categories (mortality or growth inhibition) at an application rate of 200 ppm: […]
For `C[C@H](NC(=O)Nc1cc(Cl)c(OC(F)(F)C(F)C(F)(F)F)cc1Cl)c1ncnn1-c1ncccn1` (stereo partly drawn) [Example P211, 1-[2,5-dichloro-4-(1,1,2,3,3,3-hexafluoropropoxy)phenyl]-3-[(1S)-1-(2-pyrimidin-2-yl-1,2,4-triazol-3-yl)ethyl]urea], the percent effect (mortality or growth inhibition) at 200 ppm was at least 80%.
On the same count and under the same terms, the same measure for `C[C@H](NC(=O)Nc1cc(C(F)(F)F)c(Cl)cc1Cl)c1ncnn1-c1ccc(C(=O)N2CCOCC2)cn1` [Example P175, 1-[2,4-dichloro-5-(trifluoromethyl)phenyl]-3-[(1S)-1-[2-[5-(morpholine-4-carbonyl)-2-pyridyl]-1,2,4-triazol-3-yl]ethyl]urea]: at least 80%; for `C[C@H](NC(=O)Nc1cc(OCC#N)c(Cl)cc1Cl)c1ncnn1-c1ncccn1` [Example P161, 1-[2,4-dichloro-5-(cyanomethoxy)phenyl]-3-[(1S)-1-(2-pyrimidin-2-yl-1,2,4-triazol-3-yl)ethyl]urea]: at least 80%; for `C[C@H](NC(=O)Nc1nc(C2CC2)cc(C2CC2)n1)c1ncnn1-c1ncccn1` [Example P33, 1-(4,6-dicyclopropylpyrimidin-2-yl)-3-[(1S)-1-(2-pyrimidin-2-yl-1,2,4-triazol-3-yl)ethyl]urea]: at least 80%.
Turning to `Cc1cc(NC(=O)N[C@@H](C)c2ncnn2-c2ncccn2)c(Cl)cc1Br` [Example P290, 1-(4-bromo-2-chloro-5-methyl-phenyl)-3-[(1S)-1-(2-pyrimidin-2-yl-1,2,4-triazol-3-yl)ethyl]urea], the percent effect (mortality or growth inhibition) at 200 ppm is at least 80%.
`CC(=O)c1cc(NC(=O)N[C@@H](C)c2ncnn2-c2ncccn2)c(Cl)cc1Cl` [Example P229, 1-(5-acetyl-2,4-dichloro-phenyl)-3-[(1S)-1-(2-pyrimidin-2-yl-1,2,4-triazol-3-yl)ethyl]urea]: the percent effect (mortality or growth inhibition) at 200 ppm is at least 80%.
Take `C[C@H](NC(=O)Nc1cc(Cl)ccc1C(F)(F)F)c1ncnn1-c1ncccn1` [Example P12, 1-[5-chloro-2-(trifluoromethyl)phenyl]-3-[(1S)-1-(2-pyrimidin-2-yl-1,2,4-triazol-3-yl)ethyl]urea]: the percent effect (mortality or growth inhibition) at 200 ppm was at least 80%.

The values above are taken from patent US20240108006A1, “PESTICIDALLY ACTIVE HETEROAROMATIC COMPOUNDS” (SYNGENTA CROP PROTECTION AG, priority 2021, published 2024).
